Experiments:
Experiment in all cases: relative viability (nuclei count vs DMSO), 5 days (fraction); higher = more cells survive
IPA-3 + Palbociclib = compound: C1=CC=C2C(=C1)C=CC(=C2SSC3=C(C=CC4=CC=CC=C43)O)O [IPA-3] + CC(=O)c1c(C)c2cnc(Nc3ccc(N4CCNCC4)cn3)nc2n(C2CCCC2)c1=O [Palbociclib] (partner 0.5 µM)
Method in brief: (§1)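 The day after seeding in 1536-well plates, lung cancer cell lines were treated by pin tool with a single drug, or with a fixed anchor-drug dose together with five library-drug doses (not always all listed) in √10 steps. After 5 days, a combined fix-and-stain solution (final 0.05% Triton X-100, 1% formaldehyde, 1 ug/ml Hoechst) was added. Nuclei counted on 4× images gave relative viability as treated counts over vehicle counts, reported as the median of duplicate plates.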

Doramapimod + Linsitinib = compound: Cc1ccc(-n2nc(C(C)(C)C)cc2NC(=O)Nc2ccc(OCCN3CCOCC3)c3ccccc23)cc1 [Doramapimod] + C[C@]1(O)C[C@@H](c2nc(-c3ccc4ccc(-c5ccccc5)nc4c3)c3c(N)nccn32)C1 [Linsitinib] (partner 1 µM)
Method in brief: as §1

IPA-3 + Bortezomib = compound: C1=CC=C2C(=C1)C=CC(=C2SSC3=C(C=CC4=CC=CC=C43)O)O [IPA-3] + CC(C)C[C@H](NC(=O)[C@H](Cc1ccccc1)NC(=O)c1cnccn1)B(O)O [Bortezomib] (partner 0.002 µM)
Method in brief: as §1

RAF265 + OSI-027 = compound: Cn1c(Nc2ccc(C(F)(F)F)cc2)nc2cc(Oc3ccnc(-c4ncc(C(F)(F)F)[nH]4)c3)ccc21 [RAF265] + COc1cccc2cc(-c3nc([C@H]4CC[C@H](C(=O)O)CC4)n4ncnc(N)c34)[nH]c12 [OSI-027] (partner 0.5 µM)
Method in brief: as §1

Cell Line	relative viability (IPA-3 + Palbociclib; first compound 0.2 µM)	relative viability (IPA-3 + Palbociclib; first compound 0.6325 µM)	relative viability (IPA-3 + Palbociclib; first compound 2 µM)	relative viability (IPA-3 + Palbociclib; first compound 6.325 µM)	relative viability (IPA-3 + Palbociclib; first compound 20 µM)	relative viability (Doramapimod + Linsitinib; first compound 0.02 µM)	relative viability (Doramapimod + Linsitinib; first compound 0.06325 µM)	relative viability (Doramapimod + Linsitinib; first compound 0.2 µM)	relative viability (Doramapimod + Linsitinib; first compound 0.6325 µM)	relative viability (Doramapimod + Linsitinib; first compound 2 µM)	relative viability (IPA-3 + Bortezomib; first compound 0.2 µM)	relative viability (IPA-3 + Bortezomib; first compound 0.6325 µM)	relative viability (IPA-3 + Bortezomib; first compound 2 µM)	relative viability (IPA-3 + Bortezomib; first compound 6.325 µM)	relative viability (IPA-3 + Bortezomib; first compound 20 µM)	relative viability (RAF265 + OSI-027; first compound 0.01 µM)	relative viability (RAF265 + OSI-027; first compound 0.03162 µM)	relative viability (RAF265 + OSI-027; first compound 0.1 µM)	relative viability (RAF265 + OSI-027; first compound 0.3162 µM)	relative viability (RAF265 + OSI-027; first compound 1 µM)
NCI-H1437	0.409	0.359	0.317	0.291	0.285	1.03	0.982	0.968	1.17	0.947	1.09	0.467	0.443	0.438	0.587	0.863	0.918	0.82	0.982	0.611
NCI-H1651	0.534	0.511	0.541	0.528	0.602	0.92	0.844	0.923	0.977	0.917	1.02	0.912	0.998	1.04	1.06	0.783	0.776	0.695	0.52	0.362
NCI-H1666	0.643	0.672	0.624	0.616	0.658	0.871	0.883	0.847	0.781	0.738	0.903	0.808	0.887	0.76	0.73	0.89	0.716	0.774	0.739	0.598
NCI-H1734	0.366	0.19	0.359	0.345	0.361	0.864	0.755	0.721	0.767	0.662	0.973	0.812	1.03	0.995	0.87	0.604	0.54	0.38	0.381	0.247
NCI-H1755	0.464	0.488	0.422	0.43	0.44	0.982	1	1.02	1.05	0.996	1.02	0.905	0.946	0.997	1.08	0.689	0.636	0.597	0.455	0.303
NCI-H1792	0.684	0.658	0.662	0.677	0.731	0.434	0.434	0.536	0.615	0.351	1.1	0.928	1.08	0.895	1.16	0.681	0.691	0.72	0.444	0.25
NCI-H1915	0.498	0.514	0.534	0.495	0.54	1.1	1.17	1.1	1.12	1.09	1.15	0.974	0.952	0.971	1.09	0.674	0.492	0.339	0.217	0.176
NCI-H1975	0.843	0.555	0.642	0.54	0.569	1.07	0.956	0.885	0.98	0.926	0.373	0.375	0.387	0.421	0.481	0.682	0.601	0.348	0.261	0.178
NCI-H1993	0.702	0.732	0.656	0.516	0.545	0.663	0.708	0.795	0.753	0.755	1.04	1.14	1.14	1.1	1.21	0.539	0.583	0.552	0.579	0.543
NCI-H2009	0.203	0.202	0.2	0.231	0.151	1.21	1.23	1.3	1.23	1.16	1.27	0.95	1.09	0.943	0.715	0.581	0.414	0.328	0.365	0.318
NCI-H2023	0.441	0.347	0.414	0.442	0.41	0.626	0.718	0.533	0.738	0.575	1.19	0.9	1.05	1.17	1.11	0.387	0.358	0.33	0.252	0.318
NCI-H2085	0.474	0.457	0.471	0.436	0.54	0.898	0.939	0.873	0.876	0.864	1.19	0.99	1.01	0.937	1.27	0.948	0.68	0.841	0.552	0.83
NCI-H2087	0.263	0.207	0.22	0.219	0.283	0.976	1.13	0.939	0.962	0.951	1.04	0.796	0.828	0.749	0.838	0.653	0.426	0.426	0.193	0.334
NCI-H2126	0.33	0.369	0.335	0.343	0.375	0.668	0.678	0.642	0.693	0.625	1.19	1.11	1.13	1.11	1.19	0.77	0.724	0.718	0.582	0.437
NCI-H2228	0.825	0.71	0.474	1	0.752	0.762	0.449	0.632	0.65	0.464	1.24	1.04	1.07	1.15	0.855	0.499	0.476	0.344	0.184	0.121

Reference: the supplement of paper PMC10307832
